Counter-ions that a name gives are not always drawn.
Columns and labels:
[1] = system: pS6K1 in MCF7 (measure of mTORC1 activity); assay: AlphaLISA Ultra pS6K1 assay; format: cell-based; conditions: Homo sapiens, MCF7, 2 h, MCF-7 cells, 2 hours compound incubation
Outline: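 MCF7 cells, refreshed medium 2 h, treated with compound 2 h at 0.5% DMSO final, then lysed. Phospho-S6K1 in lysates detected by AlphaLISA Ultra (acceptor beads 2 h, donor beads 2 h), read as Alpha signal on a multimode reader.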

[2] = system: pAKT in MCF7 (measure of mTORC2 activity); assay: AlphaLISA Ultra pAKT assay; format: cell-based; conditions: Homo sapiens, MCF7, 2 h, MCF-7 cells, 2 hours compound incubation
Outline: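 MCF7 cells, 16,000-20,000 per well, treated with compound for 2 h at 0.5% final DMSO, then lysed. Phospho-AKT, as a readout of mTORC2 activity, measured by AlphaLISA Ultra with acceptor beads and then donor beads, 2 h each.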

SMILES | IC50 [1] | IC50 [2]
Cc1c(CN2CCN(c3ccccc3Cl)CC2)cc(C(=O)N2CCN(c3ccc(F)c(F)c3)CC2)n1C [Example I-109, (4-((4-(2-chlorophenyl)piperazin-1-yl)methyl)-1,5-dimethyl-1H-pyrrol-2-yl)(4-(3,4-difluorophenyl)piperazin-1-yl)methanone] | 10 to 1000 nM | > 1000 nM
Cc1c(CN2CCN(c3ccccc3Cl)CC2)cc(C(=O)N2CCN(c3cccc(C#N)c3)CC2)n1C [Example I-110, 3-(4-(4-((4-(2-chlorophenyl)piperazin-1-yl)methyl)-1,5-dimethyl-1H-pyrrole-2-carbonyl)piperazin-1-yl)benzonitrile] | 10 to 1000 nM | > 1000 nM
Cc1c(CN2CCN(c3ccccc3Cl)CC2)cc(C(=O)N2CCN(c3cc(F)c(F)c(F)c3)CC2)n1C [Example I-111, (4-((4-(2-Chlorophenyl)piperazin-1-yl)methyl)-1,5-dimethyl-1H-pyrrol-2-yl)(4-(3,4,5-trifluorophenyl)piperazin-1-yl)methanone] | 10 to 1000 nM | > 3000 nM
Cc1c(CN2CCN(c3ccccc3Cl)CC2)cc(C(=O)N2CCN(c3cccc(Cl)c3)C[C@@H]2C)n1C [Example I-112, (S)-(4-(3-chlorophenyl)-2-methylpiperazin-1-yl)(4-((4-(2-chlorophenyl)piperazin-1-yl)methyl)-1,5-dimethyl-1H-pyrrol-2-yl)methanone] | 10 to 1000 nM | > 3000 nM
O=C(c1cc(CN2CCN(c3ccccc3Cl)CC2)cn1CC(F)(F)F)N1CCN(c2ccccc2)CC1 [Example I-114, (4-((4-(2-Chlorophenyl)piperazin-1-yl)methyl)-1-(2,2,2-trifluoroethyl)-1H-pyrrol-2-yl)(4-phenylpiperazin-1-yl)methanone trifluoroacetate salt] | 1000 to 3000 nM | > 10000 nM
Cc1c(CN2CCN(c3ccccc3Cl)CC2)cc(C(=O)N2CCN(c3ccc(F)cc3)CC2)n1C [Example I-115, (4-((4-(2-Chlorophenyl)piperazin-1-yl)methyl)-1,5-dimethyl-1H-pyrrol-2-yl)(4-(4-fluorophenyl)piperazin-1-yl)methanone] | 10 to 1000 nM | > 3000 nM
Cc1c(CN2CCN(c3ccccc3Cl)CC2)cc(C(=O)N2CCN(c3ccc(F)c(F)c3)C[C@@H]2C)n1C [Example I-116, (S)-(4-((4-(2-chlorophenyl)piperazin-1-yl)methyl)-1,5-dimethyl-1H-pyrrol-2-yl)(4-(3,4-difluorophenyl)-2-methylpiperazin-1-yl)methanone] | 10 to 1000 nM | > 1000 nM
C[C@H]1CN(c2ccc(F)c(F)c2)CCN1C(=O)c1cc(CN2CCN(c3ccccc3Cl)CC2)cn1C [Example I-117, (S)-(4-((4-(2-chlorophenyl)piperazin-1-yl)methyl)-1-methyl-1H-pyrrol-2-yl)(4-(3,4-difluorophenyl)-2-methylpiperazin-1-yl)methanone] | 10 to 1000 nM | > 3000 nM
Cc1c(CN2CCN(c3ccccc3Cl)CC2)cc(C(=O)N2CCN(c3cccc(Cl)c3)CC2)n1C [Example I-118, (4-(3-Chlorophenyl)piperazin-1-yl)(4-((4-(2-chlorophenyl)piperazin-1-yl)methyl)-1,5-dimethyl-1H-pyrrol-2-yl)methanone] | 10 to 1000 nM | > 3000 nM
Cn1cc(CN2CCN(c3ncccc3Cl)CC2)cc1C(=O)N1CCN(c2ccccc2)CC1 [Example I-119, (4-((4-(3-chloropyridin-2-yl)piperazin-1-yl)methyl)-1-methyl-1H-pyrrol-2-yl)(4-phenylpiperazin-1-yl)methanone] | 1000 to 3000 nM | > 3000 nM
Cc1c(CN2CCN(c3ccccc3Cl)CC2)cc(C(=O)N2CCN(c3cccc(C#N)c3)C[C@@H]2C)n1C [Example I-120, (S)-3-(4-(4-((4-(2-chlorophenyl)piperazin-1-yl)methyl)-1,5-dimethyl-1H-pyrrole-2-carbonyl)-3-methylpiperazin-1-yl)benzonitrile] | 10 to 1000 nM | > 1000 nM
C[C@H]1CN(c2ccccc2C#N)CCN1C(=O)c1cc(CN2CCN(c3ccccc3Cl)CC2)cn1C [Example I-121, (S)-2-(4-(4-((4-(2-chlorophenyl)piperazin-1-yl)methyl)-1-methyl-1H-pyrrole-2-carbonyl)-3-methylpiperazin-1-yl)benzonitrile] | 10 to 1000 nM | > 1000 nM
Cn1cc(CN2CCN(c3ccccc3Cl)CC2)cc1C(=O)N1CCN(c2ccccn2)CC1 [Example I-122] | 10 to 1000 nM | > 1000 nM
C[C@H]1CN(c2cccc(C#N)c2)CCN1C(=O)c1cc(CN2CCN(c3ccccc3Cl)CC2)cn1C [Example I-123, (S)-3-(4-(4-((4-(2-chlorophenyl)piperazin-1-yl)methyl)-1-methyl-1H-pyrrole-2-carbonyl)-3-methylpiperazin-1-yl)benzonitrile] | 10 to 1000 nM | > 1000 nM
Cn1cc(CN2CCN(c3ccccc3C#N)CC2)cc1C(=O)N1CCN(c2ccccc2)CC1 [Example I-124, 2-(4-((1-methyl-5-(4-phenylpiperazine-1-carbonyl)-1H-pyrrol-3-yl)methyl)piperazin-1-yl)benzonitrile] | 10 to 1000 nM | > 3000 nM
Cn1cc(CN2CCN(c3ccccc3C(F)(F)F)CC2)cc1C(=O)N1CCN(c2ccccc2)CC1 [Example I-126, 1-{[1-Methyl-5-(4-phenylpiperazine-1-carbonyl)-1H-pyrrol-3-yl]methyl}-4-[2-(trifluoromethyl)phenyl]piperazine] | 3000 to 10000 nM | > 10000 nM
Cn1cc(CN2CCN(c3ccc(F)cc3Cl)CC2)cc1C(=O)N1CCN(c2ccc(F)cc2)CC1 [Example I-127] | 1000 to 3000 nM | > 10000 nM
Cn1cc(CN2CCC3(CCN(c4ccccc4Cl)C3)C2)cc1C(=O)N1CCN(c2ccc(F)cc2)CC1 (stereo not drawn) [Example I-128] | 1000 to 3000 nM | > 10000 nM

SMILES | IC50 [1] | IC50 [2]
Cn1cc(CNC2CCN(c3ccccc3Cl)CC2)cc1C(=O)N1CCN(c2ccc(F)cc2)CC1 [Example I-129] | 1000 to 3000 nM | > 10000 nM
Cn1cc(CN2CCC(Nc3ccccc3Cl)CC2)cc1C(=O)N1CCN(c2ccc(F)cc2)CC1 [Example I-130] | 1000 to 3000 nM | > 10000 nM
Cn1cc(CN2CC3CN(c4ccccc4Cl)CC3C2)cc1C(=O)N1CCN(c2ccc(F)cc2)CC1 (stereo not drawn) [Example I-131] | 3000 to 10000 nM | > 10000 nM
Cn1cc(CN2CCN(c3ccccc3Cl)CC2)cc1C(=O)N1CCN(c2cc(F)c(F)c(F)c2)CC1 [Example I-132, (4-((4-(2-Chlorophenyl)piperazin-1-yl)methyl)-1-methyl-1H-pyrrol-2-yl)(4-(3,4,5-trifluorophenyl)piperazin-1-yl)methanone trifluoroacetate salt] | 3000 to 10000 nM | > 10000 nM
Cc1c(CN2CCN(c3ccccc3Cl)CC2)cc(C(=O)N2CCN(c3ccccc3)CC2)n1C [Example I-133, (4-((4-(2-Chlorophenyl)piperazin-1-yl)methyl)-1,5-dimethyl-1H-pyrrol-2-yl)(4-phenylpiperazin-1-yl)methanone] | 10 to 1000 nM | > 1000 nM
Cc1ccccc1N1CCN(Cc2cc(C(=O)N3CCN(c4ccccc4)CC3)n(C)c2)CC1 [Example I-134, (1-methyl-4-((4-o-tolylpiperazin-1-yl)methyl)-1H-pyrrol-2-yl)(4-phenylpiperazin-1-yl)methanone] | 1000 to 3000 nM | > 3000 nM
Cn1cc(CN2CCN(c3ccccc3Cl)CC2)cc1C(=O)N1CCN(c2ccc(F)cc2)CC1 [Example I-135] | 1000 to 3000 nM | > 3000 nM
C[C@H]1CN(c2ccccc2)CCN1C(=O)c1cc(CN2CCN(c3ccccc3Cl)CC2)cn1C [Example I-136, (S)-(4-((4-(2-chlorophenyl)piperazin-1-yl)methyl)-1-methyl-1H-pyrrol-2-yl)(2-methyl-4-phenylpiperazin-1-yl)methanone] | 1000 to 3000 nM | > 3000 nM
C[C@@H]1CN(c2ccccc2)CCN1C(=O)c1cc(CN2CCN(c3ccccc3Cl)CC2)cn1C [Example I-137, (R)-(4-((4-(2-chlorophenyl)piperazin-1-yl)methyl)-1-methyl-1H-pyrrol-2-yl)(2-methyl-4-phenylpiperazin-1-yl)methanone] | 3000 to 10000 nM | > 10000 nM
Cn1cc(CN2CCN(c3ccccc3Cl)CC2)cc1C(=O)N1CCN(c2cccc(C#N)c2)CC1 [Example I-138, 3-(4-(4-((4-(2-chlorophenyl)piperazin-1-yl)methyl)-1-methyl-1H-pyrrole-2-carbonyl)piperazin-1-yl)benzonitrile] | 1000 to 3000 nM | > 3000 nM
COCCn1cc(CN2CCN(c3ccccc3C(F)(F)F)CC2)cc1C(=O)N1CCN(c2ccccc2)CC1 [Example I-139] | 3000 to 10000 nM | > 10000 nM
COCCn1cc(CN2CCN(c3ccccc3Cl)CC2)cc1C(=O)N1CCN(c2ccc(F)cc2)CC1 [Example I-140] | 1000 to 3000 nM | > 10000 nM
COCCn1cc(CN2CCN(c3ccccc3Cl)CC2)cc1C(=O)N1CCN(c2ccccc2F)CC1 [Example I-141] | 3000 to 10000 nM | > 10000 nM
O=C(c1cc(CN2CCN(c3ccccc3Cl)CC2)cn1CCO)N1CCN(c2ccccc2)CC1 [Example I-142] | 1000 to 3000 nM | > 3000 nM
CCn1cc(CN2CCN(c3ccccc3Cl)CC2)cc1C(=O)N1CCN(c2ccccc2)CC1 [Example I-143] | 10 to 1000 nM | > 3000 nM
Cn1cc(CN2CCN(c3ccccc3Cl)CC2)cc1C(=O)N1CCN(c2ccccc2)CC1 [Example I-144] | 1000 to 3000 nM | > 3000 nM
COCCCn1cc(CN2CCN(c3ccccc3Cl)CC2)cc1C(=O)N1CCN(c2ccccc2)CC1 [Example I-145] | 3000 to 10000 nM | > 10000 nM
CCCCn1cc(CN2CCN(c3ccccc3Cl)CC2)cc1C(=O)N1CCN(c2ccccc2)CC1 [Example I-146] | 3000 to 10000 nM | > 10000 nM

— patent US20190389843A1, “PYRROLE mTORC INHIBITORS AND USES THEREOF” (Navitor Pharmaceuticals, Inc., priority 2016, published 2019)
